Laboratory results: patent US10647680B2, “Urea compound, preparation method therefor and medical use thereof” (Ancureall Pharmaceutical (Shanghai) Co., Ltd., priority 2016, dated 2020)
Where two headings read alike, the source gives them in different places.

Key:
[1] = test system: OCI-AML3 (NPMc+ mutant type); assay: In vitro growth inhibition (GI50), OCI-AML3; assay type: cell-based; settings: Homo sapiens, OCI-AML-3; Cell lines of leukemia; read-out: GI 50 OCI- AML3 NPMc+
[2] = test system: NCI-H1993 (c-MET amp); assay: In vitro growth inhibition (GI50), NCI-H1993; assay type: cell-based; settings: Homo sapiens, H1993, cMET Amp+
From the text: (§1) Tumor cell line is an effective cell model for studying the inhibition of tumor cell growth or proliferation in vitro. In the present invention, a representative tumor cell line was selected to determine the cell growth inhibition activity of the present compound. All cell lines used were from ATCC, DSMZ, and the Cell Bank of the Chinese Academy of Sciences. Cell culture conditions and methods were in accordance with the requirements of each cell line. Cells were subcultured in vitro for no more than 3 passages each time, and as required, single-clone purification and identification of cell lines could be carried out.
(§2) The cell culture media used were RPMI1640 (Gibco), MEM (Gibco), McCOY'S5A (Gibco), and IMDM (Gibco). The complete medium was prepared by supplement with 5˜20% fetal calf serum (Gibco), 1% double-antibiotics (10000 units/mL penicillin and 10000 units/mL), 2 mM glutamine or 1 mM sodium pyruvate, respectively.
(§3) The human gastric cancer cell line MKN-45 (c-MET amp, ATCC) and the non-small cell lung cancer cell line NCI-H1993 (c-MET amp, ATCC) were cultured in complete medium comprising 1×RPMI1640 and 10% FBS, respectively.
(§4) Adherent cells were digested with 0.25% pancreatin-EDTA (Gibco). The suspension cells were collected by centrifugation. The supernatant was discarded and the cell pellet was resuspended and counted. Different cell concentrations (5˜10×10^4 cells/mL) were prepared according to the growth cycle of each cell line and then seeded on a 96-well plate (Corning), 100 μL/well. The cells were incubated overnight at 37° C., 5% CO2. The compounds were added to the cells on the second day with 2 wells in parallel. The final concentration of organic solvent shall not exceed 1%. The cells were continually incubated for 3 to 5 days, and then subjected to MTT assay.
(§5) The compound of the present invention and the control compound were dissolved in DMSO (Sigma) respectively, with the purity of more than 98%. The compound was stored in a concentration of 10 mM at −20° C. and diluted to 2- or 10-fold series prior to use.
(§6) Dojindo CCK8 reagent kit was used as MTT assay. THERMO […] FC meter was used as microplate reader.
(§7) For adherent cells, culture medium was removed and immediately replaced with the fresh prepared medium which contains 10% CCK8 reagent (100 μL/well). For the suspension cells, CCK8 was directly added to 10% of the final concentration. The cells were continually incubated for 1˜4 h. When a dark yellow color could be observed in the solvent control wells, the absorbance value at OD450 nm was measured and the cell growth rate was calculated according to the following formula: Cell Growth Rate (%)=100*(T−T0)/(C−T0) T=optical density of drug treatment cell well—optical density of blank control well; T0=optical density of cell well before drug treatment—optical density of blank control well; C=optical density of cell well of solvent control group—optical density of blank control well. The concentration value of 50% inhibition of cell growth (GI50) was calculated according to the drug concentration and cell growth rate curve. The experiment was independently repeated 1˜3 times, and subject to biological statistical analysis. 4. Experimental Results
(§8) Tumor cell growth inhibition test was performed by selecting representative compounds (compounds 4, 11, 12, 16, 27, 68, 71, 77, 79, 89 and 116 of the present invention). The initial concentration of the compound was 5,000 nM, then it was serially diluted by 2-fold or 10-fold to 0.01 nM. The GI50 value of each test compound was calculated according to the GI50 assay and calculation method. The experiments were repeated 1 to 3 times, and data were subjected to biological statistical analysis.

[3] = test system: KG-1 (expressing FGFR1OP2-FGFR1 fusion protein); assay: In vitro growth inhibition (GI50), KG-1; assay type: cell-based; settings: Homo sapiens; Cell lines of leukemia; read-out: GI 50 KG-1 FGFR1OP 2-FGFR1
[4] = test system: MKN-45 (c-MET amp); assay: In vitro growth inhibition (GI50), MKN-45; assay type: cell-based; settings: Homo sapiens; MKN-45, cMET Amp+
From the text: as §1, §2, §3, §4, §5, §6, §7, §8

[5] = test system: MV4-11 (FLT3 ITD+/+ mutant type); assay: In vitro growth inhibition (GI50), MV4-11; assay type: cell-based, human; settings: for growth inhibitory effect on MV4-11 (in words): FLT3-ITD positive cell line MV4-11; for GI50: Homo sapiens; for inhibition activity against the growth of MV4-11 cells compared with AC220: compared with the control compound AC220
[6] = MV4-11, Cell lines of leukemia, read-out: GI 50 MV4-11 FLT3 (ITD +/+)
[7] = MV4-11, FLT3 ITD +/+, read-out: GI50
[8] = FLT3-ITD positive-expressing cell line MV4-11, Table 3, read-out: GI50 value, MV4-11

CC(C)(C)c1cc(NC(=O)Nc2ccc(-n3cnc4cc(OCCO)ccc43)cc2)no1 [Compound 11, 1-(5-tert-butyl-isoxazol-3-yl)-3-{4-[5-(2-hydroxy-ethoxyl)-benzimidazol-1-yl]-phenyl]-urea]
GI50 [1]: > 1000 nM
GI50 [2]: > 2500 nM
GI50 [3]: > 1000 nM
GI50 [4]: > 2500 nM
growth inhibitory effect on MV4-11 (in words) [5]: strong growth inhibitory effects
GI50 [5, 6]: 0.01 to 0.1 nM
GI50 [5, 7]: 0.07 nM
inhibition activity against the growth of MV4-11 cells compared with AC220 [5]: stronger inhibition activity

COc1ccc2c(c1)ncn2-c1ccc(NC(=O)Nc2cc(C(C)(C)C)n[nH]2)cc1 [Compound 71, 1-(5-tert-butyl-2H-pyrazol-3-yl)-3-[4-(5-methoxyl-benzimidazol-1-yl)-phenyl]-urea]
GI50 [1]: > 1000 nM
GI50 [2]: > 2500 nM
GI50 [3]: > 1000 nM
GI50 [4]: > 2500 nM
GI50 [5, 6]: 0.01 to 0.1 nM
GI50 [5, 8]: 0.039 to 0.8 nM
GI50 [5, 7]: 0.039 nM
inhibition activity against the growth of MV4-11 cells compared with AC220 [5]: stronger inhibition activity

CC(C)(C)c1cc(NC(=O)Nc2ccc(-n3cnc4cc(O)ccc43)cc2)no1 [Compound 4, 1-(5-tert-butyl-isoxazol-3-yl)-3-[4-(5-hydroxy-benzimidazol-1-yl)-phenyl]-urea]
GI50 [1]: > 1000 nM
GI50 [2]: > 2500 nM
GI50 [3]: 100 to 1000 nM
GI50 [4]: > 2500 nM
growth inhibitory effect on MV4-11 (in words) [5]: strong growth inhibitory effects
GI50 [5, 6]: 0.1 to 1 nM
GI50 [5, 7]: 0.12 nM

COCCOc1ccc2c(c1)ncn2-c1ccc(NC(=O)Nc2cc(C(C)(C)C)n[nH]2)cc1 [Compound 77, 1-(5-tert-butyl-2H-pyrazol-3-yl)-3-{4-[5-(2-methoxyl-ethoxyl)-benzimidazol-1-yl]-phenyl}-urea]
GI50 [1]: > 1000 nM
GI50 [2]: > 2500 nM
GI50 [3]: > 1000 nM
GI50 [4]: > 2500 nM
GI50 [5, 6]: 0.01 to 0.1 nM
GI50 [5, 8]: 0.039 to 0.8 nM
GI50 [5, 7]: 0.093 nM
inhibition activity against the growth of MV4-11 cells compared with AC220 [5]: stronger inhibition activity

CC(C)(C)c1cc(NC(=O)Nc2ccc(-n3cnc4cc(OCCO)ccc43)cc2)[nH]n1 [Compound 79, 1-(5-tert-butyl-2H-pyrazol-3-yl)-3-{4-[5-(2-hydroxy-ethoxyl)-benzimidazol-1-yl]-phenyl]urea]
GI50 [1]: > 1000 nM
GI50 [2]: > 2500 nM
GI50 [3]: > 1000 nM
GI50 [4]: > 2500 nM
growth inhibitory effect on MV4-11 (in words) [5]: strong growth inhibitory effects
GI50 [5, 6]: 0.01 to 0.1 nM
GI50 [5, 7]: 0.047 nM
inhibition activity against the growth of MV4-11 cells compared with AC220 [5]: stronger inhibition activity

CC(C)(C)c1cc(N)n(C(=O)Nc2ccc(-n3cnc4ccccc43)cc2)n1 [Compound 116, 5-amino-3-tert-butyl-pyrazol-1-carboxylic acid (4-benzimidazol-1-yl-phenyl)-amide]
GI50 [1]: > 1000 nM
GI50 [2]: > 2500 nM
GI50 [3]: > 1000 nM
GI50 [4]: > 2500 nM
GI50 [5, 6]: 10 to 100 nM
GI50 [5, 8]: 0.039 to 0.8 nM
GI50 [5, 7]: 1.51 nM

CC(C)(C)c1cc(NC(=O)Nc2ccc(-n3cnc4ccc(OCCN5CCOCC5)cc43)cc2)no1 [Compound 27, 1-(5-tert-butyl-isoxazol-3-yl)-3-{4-[6-(2morpholin-4-yl-ethoxyl)-benzimidazol-1-yl]-phenyl}-urea]
GI50 [1]: 100 to 1000 nM
GI50 [2]: > 2500 nM
GI50 [3]: 100 to 1000 nM
GI50 [4]: > 2500 nM
GI50 [5, 6]: 0.1 to 1 nM
GI50 [5, 8]: 0.039 to 0.8 nM
GI50 [5, 7]: 0.78 nM

CC(C)(C)c1cc(NC(=O)Nc2ccc(-n3cnc4ccccc43)cc2)[nH]n1 [Compound 68, 1-(4-benzimidazol-1-yl-phenyl)-3-(5-tert-butyl-2H-pyrazol-3-yl)-urea]
GI50 [1]: > 1000 nM
GI50 [2]: > 2500 nM
GI50 [3]: > 1000 nM
GI50 [4]: > 2500 nM
GI50 [5, 6]: 0.1 to 1 nM
GI50 [5, 8]: 0.039 to 0.8 nM
GI50 [5, 7]: 0.48 nM

CC(C)(C)c1cc(NC(=O)Nc2ccc(-n3cnc4cc(OCCN5CCOCC5)ccc43)cc2)no1 [Compound 16, 1-(5-tert-butyl-isoxazol-3-yl)-3-{4-[5-(2-morpholin-4-yl-ethoxyl)-benzimidazol-1-yl]-phenyl}-urea]
GI50 [1]: > 1000 nM
GI50 [2]: > 2500 nM
GI50 [3]: > 1000 nM
GI50 [4]: > 2500 nM
GI50 [5, 6]: 0.1 to 1 nM
GI50 [5, 8]: 0.039 to 0.8 nM
GI50 [5, 7]: 0.48 nM

CC(C)(C)c1cc(NC(=O)Nc2ccc(-n3cnc4cc(OCCN5CCOCC5)ccc43)cc2)[nH]n1 [Compound 89, 1-(5-tert-butyl-2H-pyrazol-3-yl)-3-{4-[5-(2-morpholin-4-yl-ethoxyl)-benzimidazol-1-yl]-phenyl}-urea]
GI50 [1]: 100 to 1000 nM
GI50 [2]: > 2500 nM
GI50 [3]: > 1000 nM
GI50 [4]: > 2500 nM
GI50 [5, 6]: 0.01 to 0.1 nM
GI50 [5, 8]: 0.039 to 0.8 nM
GI50 [5, 7]: 0.041 nM
inhibition activity against the growth of MV4-11 cells compared with AC220 [5]: stronger inhibition activity
